# Tests used:
# Assay in all cases: biochemical
# Type in all cases: binding
# [1] = molecular target: panel of 468 diverse kinases (Homo sapiens, UniProt O00329); settings: PIK3CD; 1000 nM; read-out: Percent Control
# [2] = molecular target: panel of 468 diverse kinases (Homo sapiens, UniProt O00444); settings: PLK4; 1000 nM; read-out: Percent Control
# [3] = molecular target: panel of 468 diverse kinases (Homo sapiens, UniProt O43683); settings: BUB1; 1000 nM; read-out: Percent Control
# [4] = molecular target: panel of 468 diverse kinases (Homo sapiens, UniProt O94921); settings: PFTK1; 1000 nM; read-out: Percent Control
# [5] = molecular target: panel of 468 diverse kinases (Homo sapiens, UniProt O96013); settings: PAK4; 1000 nM; read-out: Percent Control
# [6] = molecular target: panel of 468 diverse kinases (Homo sapiens, UniProt P04629); settings: TRKA; 1000 nM; read-out: Percent Control
# [7] = molecular target: panel of 468 diverse kinases (Homo sapiens, UniProt P06239); settings: LCK; 1000 nM; read-out: Percent Control
# [8] = molecular target: panel of 468 diverse kinases (Homo sapiens, UniProt P07948); settings: LYN; 1000 nM; read-out: Percent Control
# [9] = molecular target: panel of 468 diverse kinases (Homo sapiens, UniProt P08581); settings: MET; 1000 nM; read-out: Percent Control
# [10] = molecular target: panel of 468 diverse kinases (Homo sapiens, UniProt P15056, V600E); settings: BRAF(V600E); 1000 nM; read-out: Percent Control
# [11] = molecular target: panel of 468 diverse kinases (Homo sapiens, UniProt P15735); settings: PHKG2; 1000 nM; read-out: Percent Control
# [12] = molecular target: panel of 468 diverse kinases (Homo sapiens, UniProt P36888, D835V); settings: FLT3(D835V); 1000 nM; read-out: Percent Control
# [13] = molecular target: panel of 468 diverse kinases (Homo sapiens, UniProt P36888, D835Y); settings: FLT3(D835Y); 1000 nM; read-out: Percent Control
# [14] = molecular target: panel of 468 diverse kinases (Homo sapiens, UniProt P42336, I800L); settings: PIK3CA(I800L); 1000 nM; read-out: Percent Control
# [15] = molecular target: panel of 468 diverse kinases (Homo sapiens, UniProt P45983); settings: JNK1; 1000 nM; read-out: Percent Control
# [16] = molecular target: panel of 468 diverse kinases (Homo sapiens, UniProt P48730); settings: CSNK1D; 1000 nM; read-out: Percent Control
# [17] = molecular target: panel of 468 diverse kinases (Homo sapiens, UniProt P53667); settings: LIMK1; 1000 nM; read-out: Percent Control
# [18] = molecular target: panel of 468 diverse kinases (Homo sapiens, UniProt Q02156); settings: PRKCE; 1000 nM; read-out: Percent Control
# [19] = molecular target: panel of 468 diverse kinases (Homo sapiens, UniProt Q04771); settings: ACVR1; 1000 nM; read-out: Percent Control
# [20] = molecular target: panel of 468 diverse kinases (Homo sapiens, UniProt Q12866); settings: MERTK; 1000 nM; read-out: Percent Control
# [21] = molecular target: panel of 468 diverse kinases (Homo sapiens, UniProt Q13873); settings: BMPR2; 1000 nM; read-out: Percent Control
# [22] = molecular target: panel of 468 diverse kinases (Homo sapiens, UniProt Q15759); settings: p38-beta; 1000 nM; read-out: Percent Control
# [23] = molecular target: panel of 468 diverse kinases (Homo sapiens, UniProt Q16620); settings: TRKB; 1000 nM; read-out: Percent Control
# [24] = molecular target: panel of 468 diverse kinases (Homo sapiens, UniProt Q86V86); settings: PIM3; 1000 nM; read-out: Percent Control
# [25] = molecular target: panel of 468 diverse kinases (Homo sapiens, UniProt Q8IU85); settings: CAMK1D; 1000 nM; read-out: Percent Control
# [26] = molecular target: panel of 468 diverse kinases (Homo sapiens, UniProt Q96L34); settings: MARK4; 1000 nM; read-out: Percent Control
# [27] = molecular target: panel of 468 diverse kinases (Homo sapiens, UniProt Q96SB4); settings: SRPK1; 1000 nM; read-out: Percent Control
# [28] = molecular target: panel of 468 diverse kinases (Homo sapiens, UniProt Q9H2X6); settings: HIPK2; 1000 nM; read-out: Percent Control
# [29] = molecular target: panel of 468 diverse kinases (Homo sapiens, UniProt Q9UKE5); settings: TNIK; 1000 nM; read-out: Percent Control
# [30] = molecular target: panel of 468 diverse kinases (Homo sapiens, UniProt Q9UPE1); settings: SRPK3; 1000 nM; read-out: Percent Control
# [31] = molecular target: panel of 468 diverse kinases (Homo sapiens, UniProt Q9UQ88); settings: CDC2L2; 1000 nM; read-out: Percent Control
# Chain of panel of 468 diverse kinases (Homo sapiens, UniProt Q16620) (Q16620 32-822 limits assumed): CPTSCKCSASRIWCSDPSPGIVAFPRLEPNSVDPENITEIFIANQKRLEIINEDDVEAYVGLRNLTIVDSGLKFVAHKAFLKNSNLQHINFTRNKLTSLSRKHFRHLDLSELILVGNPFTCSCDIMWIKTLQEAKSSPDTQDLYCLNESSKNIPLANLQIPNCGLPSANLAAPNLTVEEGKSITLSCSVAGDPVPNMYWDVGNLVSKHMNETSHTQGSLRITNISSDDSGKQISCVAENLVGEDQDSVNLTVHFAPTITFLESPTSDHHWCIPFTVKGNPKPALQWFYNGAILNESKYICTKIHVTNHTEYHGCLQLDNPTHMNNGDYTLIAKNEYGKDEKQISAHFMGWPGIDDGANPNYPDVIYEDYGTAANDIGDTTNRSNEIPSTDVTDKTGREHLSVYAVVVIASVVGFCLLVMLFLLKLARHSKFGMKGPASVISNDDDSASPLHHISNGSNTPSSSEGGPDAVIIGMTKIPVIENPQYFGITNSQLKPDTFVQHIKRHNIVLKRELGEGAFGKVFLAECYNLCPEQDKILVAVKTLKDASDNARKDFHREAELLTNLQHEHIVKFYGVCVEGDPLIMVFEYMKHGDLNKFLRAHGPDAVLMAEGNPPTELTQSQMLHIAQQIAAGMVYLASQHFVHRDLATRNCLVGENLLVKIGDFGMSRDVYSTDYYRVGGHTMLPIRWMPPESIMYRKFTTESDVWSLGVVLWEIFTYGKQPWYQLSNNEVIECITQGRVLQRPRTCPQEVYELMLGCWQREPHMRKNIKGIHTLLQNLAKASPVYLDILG
# Chain of panel of 468 diverse kinases (Homo sapiens, UniProt Q13873) (Q13873 27-1038 limits assumed): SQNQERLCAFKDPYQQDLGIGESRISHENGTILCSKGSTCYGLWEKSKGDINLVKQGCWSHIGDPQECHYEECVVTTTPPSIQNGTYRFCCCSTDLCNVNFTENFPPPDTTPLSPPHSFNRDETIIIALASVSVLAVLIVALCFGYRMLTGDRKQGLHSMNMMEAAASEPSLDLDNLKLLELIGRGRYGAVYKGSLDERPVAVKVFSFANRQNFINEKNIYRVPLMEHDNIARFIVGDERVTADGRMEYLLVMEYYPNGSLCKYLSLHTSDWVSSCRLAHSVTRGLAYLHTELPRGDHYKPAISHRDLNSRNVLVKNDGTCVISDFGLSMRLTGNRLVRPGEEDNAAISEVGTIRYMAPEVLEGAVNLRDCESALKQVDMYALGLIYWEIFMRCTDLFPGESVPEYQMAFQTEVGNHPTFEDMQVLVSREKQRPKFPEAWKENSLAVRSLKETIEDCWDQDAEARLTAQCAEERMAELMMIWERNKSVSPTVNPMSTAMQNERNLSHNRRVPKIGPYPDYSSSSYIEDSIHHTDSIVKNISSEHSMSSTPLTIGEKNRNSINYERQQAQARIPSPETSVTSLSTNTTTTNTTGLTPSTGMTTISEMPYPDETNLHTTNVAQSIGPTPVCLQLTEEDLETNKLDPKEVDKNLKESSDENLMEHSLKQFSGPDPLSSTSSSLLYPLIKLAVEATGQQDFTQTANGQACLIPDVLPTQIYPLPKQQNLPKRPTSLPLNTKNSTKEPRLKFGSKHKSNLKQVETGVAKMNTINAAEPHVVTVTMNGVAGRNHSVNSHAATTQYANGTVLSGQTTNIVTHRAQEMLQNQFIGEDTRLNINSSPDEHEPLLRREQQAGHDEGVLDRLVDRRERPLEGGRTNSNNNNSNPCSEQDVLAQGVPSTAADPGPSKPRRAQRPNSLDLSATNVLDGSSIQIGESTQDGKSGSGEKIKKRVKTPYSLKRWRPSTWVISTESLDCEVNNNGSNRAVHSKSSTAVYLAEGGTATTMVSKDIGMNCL
# Chain of panel of 468 diverse kinases (Homo sapiens, UniProt P07948) (P07948 2-512 limits assumed): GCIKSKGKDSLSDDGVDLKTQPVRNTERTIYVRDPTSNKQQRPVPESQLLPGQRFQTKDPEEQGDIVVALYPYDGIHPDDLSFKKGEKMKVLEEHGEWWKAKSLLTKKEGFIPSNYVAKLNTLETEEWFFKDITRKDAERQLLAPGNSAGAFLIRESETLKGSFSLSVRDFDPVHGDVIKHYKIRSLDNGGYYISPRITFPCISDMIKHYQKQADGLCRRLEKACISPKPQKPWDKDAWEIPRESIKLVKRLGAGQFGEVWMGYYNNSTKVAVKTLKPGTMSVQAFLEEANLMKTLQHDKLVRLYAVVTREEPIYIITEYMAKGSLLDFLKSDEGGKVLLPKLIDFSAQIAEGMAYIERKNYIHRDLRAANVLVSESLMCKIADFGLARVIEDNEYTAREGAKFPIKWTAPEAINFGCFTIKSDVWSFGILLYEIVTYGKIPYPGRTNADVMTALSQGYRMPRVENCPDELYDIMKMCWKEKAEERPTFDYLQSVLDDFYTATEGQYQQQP
# Chain of panel of 468 diverse kinases (Homo sapiens, UniProt P04629) (P04629 33-796 limits assumed): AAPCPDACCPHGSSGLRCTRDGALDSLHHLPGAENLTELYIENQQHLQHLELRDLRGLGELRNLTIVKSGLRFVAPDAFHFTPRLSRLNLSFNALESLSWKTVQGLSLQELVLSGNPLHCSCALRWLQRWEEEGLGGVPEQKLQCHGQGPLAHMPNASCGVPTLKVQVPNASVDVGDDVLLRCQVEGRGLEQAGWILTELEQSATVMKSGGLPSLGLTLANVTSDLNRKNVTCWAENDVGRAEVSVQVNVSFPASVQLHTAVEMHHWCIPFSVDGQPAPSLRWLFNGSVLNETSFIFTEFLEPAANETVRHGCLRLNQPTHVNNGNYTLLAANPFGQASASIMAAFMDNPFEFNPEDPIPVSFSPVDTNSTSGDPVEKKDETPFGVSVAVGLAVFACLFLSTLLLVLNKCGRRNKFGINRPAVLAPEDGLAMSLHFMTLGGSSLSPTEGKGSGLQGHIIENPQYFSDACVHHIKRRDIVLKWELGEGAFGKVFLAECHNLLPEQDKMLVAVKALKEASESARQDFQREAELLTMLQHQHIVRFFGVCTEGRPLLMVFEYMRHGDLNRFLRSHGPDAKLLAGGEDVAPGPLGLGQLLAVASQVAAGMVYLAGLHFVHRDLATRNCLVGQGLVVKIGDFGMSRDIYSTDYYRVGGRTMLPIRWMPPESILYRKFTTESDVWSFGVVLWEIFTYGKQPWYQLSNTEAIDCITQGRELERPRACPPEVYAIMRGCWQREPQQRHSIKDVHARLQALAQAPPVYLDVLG
# Chain of panel of 468 diverse kinases (Homo sapiens, UniProt P06239) (P06239 2-509 limits assumed): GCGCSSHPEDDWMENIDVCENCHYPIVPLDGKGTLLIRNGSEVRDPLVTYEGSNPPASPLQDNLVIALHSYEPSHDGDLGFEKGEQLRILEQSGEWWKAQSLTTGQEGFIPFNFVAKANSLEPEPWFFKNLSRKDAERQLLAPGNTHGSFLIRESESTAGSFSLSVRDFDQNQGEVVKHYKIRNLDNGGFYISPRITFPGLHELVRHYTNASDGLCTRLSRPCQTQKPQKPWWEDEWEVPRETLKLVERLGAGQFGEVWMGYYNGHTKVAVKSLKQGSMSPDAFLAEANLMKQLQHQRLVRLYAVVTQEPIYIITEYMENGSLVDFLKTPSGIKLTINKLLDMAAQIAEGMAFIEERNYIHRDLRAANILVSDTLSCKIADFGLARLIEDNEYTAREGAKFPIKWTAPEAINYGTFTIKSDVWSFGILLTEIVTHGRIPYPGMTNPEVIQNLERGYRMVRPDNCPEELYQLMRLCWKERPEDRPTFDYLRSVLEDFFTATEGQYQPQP
# Chain of panel of 468 diverse kinases (Homo sapiens, UniProt P15056, V600E) (P15056 2-766 V600E limits assumed): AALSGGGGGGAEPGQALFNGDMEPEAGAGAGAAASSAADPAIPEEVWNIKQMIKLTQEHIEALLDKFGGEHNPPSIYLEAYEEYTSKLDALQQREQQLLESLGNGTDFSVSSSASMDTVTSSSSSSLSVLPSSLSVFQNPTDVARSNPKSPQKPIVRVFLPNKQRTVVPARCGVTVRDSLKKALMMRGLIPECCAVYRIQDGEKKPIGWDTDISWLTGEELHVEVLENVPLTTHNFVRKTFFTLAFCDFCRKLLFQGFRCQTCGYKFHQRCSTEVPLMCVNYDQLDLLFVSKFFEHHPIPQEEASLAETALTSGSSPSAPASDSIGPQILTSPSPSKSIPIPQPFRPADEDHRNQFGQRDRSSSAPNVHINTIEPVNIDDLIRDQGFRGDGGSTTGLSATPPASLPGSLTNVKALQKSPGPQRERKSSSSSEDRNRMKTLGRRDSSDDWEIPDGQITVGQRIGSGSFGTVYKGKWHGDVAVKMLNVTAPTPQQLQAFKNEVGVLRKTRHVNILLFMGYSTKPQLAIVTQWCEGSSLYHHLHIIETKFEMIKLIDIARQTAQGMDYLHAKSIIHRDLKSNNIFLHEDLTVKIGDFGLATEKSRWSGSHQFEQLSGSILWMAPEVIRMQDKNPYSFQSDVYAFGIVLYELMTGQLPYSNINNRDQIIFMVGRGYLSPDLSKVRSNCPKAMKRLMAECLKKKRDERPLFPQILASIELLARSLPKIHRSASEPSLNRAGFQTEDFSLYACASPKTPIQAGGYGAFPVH
# Chain of panel of 468 diverse kinases (Homo sapiens, UniProt Q04771) (Q04771 21-509 limits assumed): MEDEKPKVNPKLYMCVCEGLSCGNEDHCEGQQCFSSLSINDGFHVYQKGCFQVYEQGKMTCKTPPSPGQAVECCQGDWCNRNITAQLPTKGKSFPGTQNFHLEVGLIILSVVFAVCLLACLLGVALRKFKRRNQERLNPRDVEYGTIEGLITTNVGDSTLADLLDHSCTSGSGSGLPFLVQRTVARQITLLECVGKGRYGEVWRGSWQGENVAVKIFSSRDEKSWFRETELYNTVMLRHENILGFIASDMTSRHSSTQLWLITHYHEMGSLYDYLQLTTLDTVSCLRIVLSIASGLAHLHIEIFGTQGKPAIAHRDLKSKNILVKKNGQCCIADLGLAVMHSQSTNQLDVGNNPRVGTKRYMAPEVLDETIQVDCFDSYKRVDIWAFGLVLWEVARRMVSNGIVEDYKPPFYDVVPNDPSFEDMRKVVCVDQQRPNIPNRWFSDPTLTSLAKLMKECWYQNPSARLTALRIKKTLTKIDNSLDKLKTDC
smiles,measurement,setting,value
COc1cc2nc(NC3CC3)nc(NC3CCN(C(C)C)CC3)c2cc1OC [Formula IV],remaining activity at 1 µM,[1],74%
same,remaining activity at 1 µM,[2],58%
same,remaining activity at 1 µM,[3],63%
same,remaining activity at 1 µM,[4],98%
same,remaining activity at 1 µM,[5],96%
same,remaining activity at 1 µM,[6],67%
same,remaining activity at 1 µM,[7],100%
same,remaining activity at 1 µM,[8],77%
same,remaining activity at 1 µM,[9],96%
same,remaining activity at 1 µM,[10],89%
same,remaining activity at 1 µM,[11],83%
same,remaining activity at 1 µM,[12],44%
same,remaining activity at 1 µM,[13],88%
same,remaining activity at 1 µM,[14],94%
same,remaining activity at 1 µM,[15],52%
same,remaining activity at 1 µM,[16],98%
same,remaining activity at 1 µM,[17],100%
same,remaining activity at 1 µM,[18],100%
same,remaining activity at 1 µM,[19],100%
same,remaining activity at 1 µM,[20],70%
same,remaining activity at 1 µM,[21],40%
same,remaining activity at 1 µM,[22],87%
same,remaining activity at 1 µM,[23],48%
same,remaining activity at 1 µM,[24],85%
same,remaining activity at 1 µM,[25],100%
same,remaining activity at 1 µM,[26],95%
same,remaining activity at 1 µM,[27],97%
same,remaining activity at 1 µM,[28],64%
same,remaining activity at 1 µM,[29],98%
same,remaining activity at 1 µM,[30],100%
same,remaining activity at 1 µM,[31],99%

# — patent US11542240B2, “STK19 inhibitors for treatment of cancer” (TRUSTEES OF BOSTON UNIVERSITY, priority 2018, dated 2023)
